Results published in patent publication US6107489A, “Extended lifetimes in vivo renin inhibitors” (ConjuChem, Inc., priority 1999, dated 2000).
Read-outs that look alike come from different tables or passages of the source.

Key:
[1] = target: T1, renin (Homo sapiens, UniProt P00797); assay: renin inhibition IC50; assay type: biochemical
T1 sequence (P00797 67-406): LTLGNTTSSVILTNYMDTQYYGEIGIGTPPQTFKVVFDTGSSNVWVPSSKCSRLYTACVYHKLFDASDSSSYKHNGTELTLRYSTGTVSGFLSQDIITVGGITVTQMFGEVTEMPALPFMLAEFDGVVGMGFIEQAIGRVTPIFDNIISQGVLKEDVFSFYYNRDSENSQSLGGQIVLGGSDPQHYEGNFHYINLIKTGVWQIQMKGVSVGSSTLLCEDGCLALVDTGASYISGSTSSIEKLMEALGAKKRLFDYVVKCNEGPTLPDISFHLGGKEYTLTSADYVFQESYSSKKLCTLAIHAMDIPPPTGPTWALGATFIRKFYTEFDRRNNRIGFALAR

[2] = tested on: renin; assay type: in vivo, rabbit; settings: for Corrected % Inhibition: normalized for dilution
Procedure: Materials and Methods: The following procedures were done under sterile conditions. Rabbit plasma was obtained from freshly drawn heparinized blood. One 8 mL aliquot of plasma was incubated with 5 micromoles of YS-004-69 (15) (the NHS ester; "NHS-RI") for 60 minutes at room temperature. Another equal aliquot was similarly incubated with 5 micromoles of YS-004-65 (free acid; "Free RI"). The reaction mixtures were stored at 4° C. overnight. Aliquots of these samples were saved for analysis of total renin inhibitor content by a standard renin radioimmunoassay (RIA). After warming to 37° C., the plasma samples were injected into two autologous rabbits. The rabbits were then bled at defined intervals. The blood was centrifuged for 5 minutes at 2500 rpm and then aliquots of the plasma were analyzed by RIA. Results: Plasma proteins derivatized with the NHS ester of the renin inhibitor did indeed maintain the inhibitor in a conformation which remained bioavailable and inhibitory after an extended period of circulation in the blood. […] Again, the amount of inhibitor detectable has been normalized for the effect of dilution of the plasma by the volume of blood in circulation. "ND" means this measurement was not determined.

Compound: CC[C@H](C)[C@H](NC(=O)C[C@H](O)[C@H](CC1CCCCC1)NC(=O)[C@H](Cc1c[nH]cn1)NC(=O)[C@H](Cc1ccccc1)NC(=O)OC(C)(C)C)C(=O)NCCCCCC(=O)O [YS-004-65, Boc-Phe-His-ACHPA-IIe-6-AC-OH]
- IC50 [1]: 50 nM
- Crude % Inhibition ([2]; 10 min after injection): 89.40%
- Corrected % Inhibition ([2]; 10 min after injection): 100.00%
- Crude % Inhibition ([2]; 30 min after injection): 20.60%
- Corrected % Inhibition ([2]; 30 min after injection): 23.04%
- Crude % Inhibition ([2]; 1 hour after injection): -2.80%
- Corrected % Inhibition ([2]; 1 hour after injection): -3.13%
- Crude % Inhibition ([2]; 4 hours after injection): -5.20%
- Corrected % Inhibition ([2]; 4 hours after injection): -5.82%
- Crude % Inhibition ([2]; 6 hours after injection): -0.40%
- Corrected % Inhibition ([2]; 6 hours after injection): -0.45%
- Crude % Inhibition ([2]; 8 hours after injection): -2.90%
- Corrected % Inhibition ([2]; 8 hours after injection): -3.24%
- Crude % Inhibition ([2]; 1 day after injection): -5.20%
- Corrected % Inhibition ([2]; 1 day after injection): -5.82%
- Crude % Inhibition ([2]; 2 days after injection): -3.20%
- Corrected % Inhibition ([2]; 2 days after injection): -3.58%
- Crude % Inhibition ([2]; 3 days after injection): 1.40%
- Corrected % Inhibition ([2]; 3 days after injection): 1.57%
- Corrected % Inhibition ([2]; 6 days after injection): 0.00%
- Crude % Inhibition ([2]; 10 days after injection): -6.60%
- Corrected % Inhibition ([2]; 10 days after injection): -7.38%
- level of renin inhibitor / inhibition in plasma over time ([2]; rabbit, in vivo): not detectable after one hour

Compound: CC[C@H](C)CNC(=O)C[C@H](O)[C@H](CC1CCCCC1)NC(=O)[C@H](Cc1c[nH]cn1)NC(=O)[C@H](Cc1ccccc1)NC(=O)OC(C)(C)C [parent renin inhibitor, reference compound]
- IC50 [1]: 4 to 19 nM

Compound: Boc-Phe-His-ACHPA-IIe-6-AC-NHS [YS-004-69]
- Crude % Inhibition ([2]; 10 min after injection): 97.70%
- Corrected % Inhibition ([2]; 10 min after injection): 100.00%
- Crude % Inhibition ([2]; 30 min after injection): 87.40%
- Corrected % Inhibition ([2]; 30 min after injection): 89.46%
- Crude % Inhibition ([2]; 1 hour after injection): 85.90%
- Corrected % Inhibition ([2]; 1 hour after injection): 87.92%
- Crude % Inhibition ([2]; 4 hours after injection): 87.40%
- Corrected % Inhibition ([2]; 4 hours after injection): 99.69%
- Crude % Inhibition ([2]; 6 hours after injection): 88.20%
- Corrected % Inhibition ([2]; 6 hours after injection): 100.51%
- Crude % Inhibition ([2]; 8 hours after injection): 70.50%
- Corrected % Inhibition ([2]; 8 hours after injection): 72.16%
- Crude % Inhibition ([2]; 1 day after injection): 75.10%
- Corrected % Inhibition ([2]; 1 day after injection): 76.87%
- Crude % Inhibition ([2]; 2 days after injection): 68.10%
- Corrected % Inhibition ([2]; 2 days after injection): 69.70%
- Crude % Inhibition ([2]; 3 days after injection): 75.80%
- Corrected % Inhibition ([2]; 3 days after injection): 77.38%
- Crude % Inhibition ([2]; 6 days after injection): 55.30%
- Corrected % Inhibition ([2]; 6 days after injection): 56.60%
- Crude % Inhibition ([2]; 10 days after injection): 41.20%
- Corrected % Inhibition ([2]; 10 days after injection): 42.17%
